Assay results taken from PubChem BioAssay (NCI).
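Step 1: Grow cells in 96-well plates. Step 2: Expose to compound for 48 hours at 5 concentrations. Step 3: Interpolate endpoints linearly; if unreached, use highest concentration. Definition used: TGI = concentration required for complete inhibition of growth.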

Assays:
Test in all cases: NCI tumour cell line growth inhibition, 48 h
786-0 renal = test system: 786-0 renal
A498 renal = test system: A498 renal
A549 NSCLC = test system: A549 NSCLC
ACHN renal = test system: ACHN renal
BT-549 breast = test system: BT-549 breast
CAKI-1 renal = test system: CAKI-1 renal
CCRF-CEM leukemia = test system: CCRF-CEM leukemia
COLO 205 colon = test system: COLO 205 colon
DU-145 prostate = test system: DU-145 prostate
EKVX NSCLC = test system: EKVX NSCLC
HCC-2998 colon = test system: HCC-2998 colon
HCT-116 colon = test system: HCT-116 colon
HCT-15 colon = test system: HCT-15 colon
HL-60(TB) leukemia = test system: HL-60(TB) leukemia
HOP-62 NSCLC = test system: HOP-62 NSCLC
HOP-92 NSCLC = test system: HOP-92 NSCLC
HS 578T breast = test system: HS 578T breast
HT29 colon = test system: HT29 colon
IGROV1 ovarian = test system: IGROV1 ovarian
K-562 leukemia = test system: K-562 leukemia
KM12 colon = test system: KM12 colon
LOX IMVI melanoma = test system: LOX IMVI melanoma
M14 melanoma = test system: M14 melanoma
MALME-3M melanoma = test system: MALME-3M melanoma
MCF7 breast = test system: MCF7 breast
MDA-MB-231 breast = test system: MDA-MB-231 breast
MDA-MB-435 = test system: MDA-MB-435
MDA-N = test system: MDA-N
MOLT-4 leukemia = test system: MOLT-4 leukemia
NCI-H226 lung = test system: NCI-H226 lung
NCI-H23 lung = test system: NCI-H23 lung
NCI-H460 lung = test system: NCI-H460 lung
NCI-H522 lung = test system: NCI-H522 lung
NCI/ADR-RES ovarian = test system: NCI/ADR-RES ovarian
OVCAR-3 ovarian = test system: OVCAR-3 ovarian
OVCAR-4 ovarian = test system: OVCAR-4 ovarian
OVCAR-5 ovarian = test system: OVCAR-5 ovarian
OVCAR-8 ovarian = test system: OVCAR-8 ovarian
PC-3 prostate = test system: PC-3 prostate
RPMI-8226 leukemia = test system: RPMI-8226 leukemia
RXF 393 renal = test system: RXF 393 renal
SF-268 CNS = test system: SF-268 CNS
SF-295 CNS = test system: SF-295 CNS
SF-539 CNS = test system: SF-539 CNS
SK-MEL-2 melanoma = test system: SK-MEL-2 melanoma
SK-MEL-28 melanoma = test system: SK-MEL-28 melanoma
SK-MEL-5 melanoma = test system: SK-MEL-5 melanoma
SK-OV-3 ovarian = test system: SK-OV-3 ovarian
SN12C renal = test system: SN12C renal
SNB-19 CNS = test system: SNB-19 CNS
SNB-75 CNS = test system: SNB-75 CNS
SR leukemia = test system: SR leukemia
SW-620 colon = test system: SW-620 colon
TK-10 renal = test system: TK-10 renal
U251 CNS = test system: U251 CNS
UACC-257 melanoma = test system: UACC-257 melanoma
UACC-62 melanoma = test system: UACC-62 melanoma
T-47D breast = test system: T-47D breast

With `Cc1cccc2c1c(=O)c1c(O)cc3c(c1n2C)C=CC(C)(C)O3` the TGI (786-0 renal) was > 100 µM, the TGI (A498 renal) was > 100 µM and the TGI (A549 NSCLC) was > 100 µM. The TGI (ACHN renal) was > 100 µM, the TGI (BT-549 breast) was > 100 µM and the TGI (CAKI-1 renal) was > 100 µM. For the same compound, the TGI (CCRF-CEM leukemia) was > 100 µM, the TGI (COLO 205 colon) was > 100 µM and the TGI (DU-145 prostate) was > 100 µM. For the same compound, the TGI (EKVX NSCLC) was > 100 µM, the TGI (HCC-2998 colon) was > 100 µM and the TGI (HCT-116 colon) was > 100 µM. The TGI (HCT-15 colon) was > 100 µM, the TGI (HL-60(TB) leukemia) was > 100 µM and the TGI (HOP-62 NSCLC) was > 100 µM. The TGI (HOP-92 NSCLC) was > 100 µM, the TGI (HS 578T breast) was > 100 µM and the TGI (HT29 colon) was > 100 µM. The TGI (IGROV1 ovarian) was > 100 µM, the TGI (K-562 leukemia) was > 100 µM and the TGI (KM12 colon) was > 100 µM. For the same compound, the TGI (LOX IMVI melanoma) was > 100 µM, the TGI (M14 melanoma) was > 100 µM and the TGI (MALME-3M melanoma) was > 100 µM. The TGI (MCF7 breast) was > 100 µM, the TGI (MDA-MB-231 breast) was > 100 µM and the TGI (MDA-MB-435) was > 100 µM. The TGI (MDA-N) was > 100 µM, the TGI (MOLT-4 leukemia) was > 100 µM and the TGI (NCI-H226 lung) was > 100 µM. For the same compound, the TGI (NCI-H23 lung) was > 100 µM, the TGI (NCI-H460 lung) was > 100 µM and the TGI (NCI-H522 lung) was > 100 µM. The TGI (NCI/ADR-RES ovarian) was > 100 µM, the TGI (OVCAR-3 ovarian) was > 100 µM and the TGI (OVCAR-4 ovarian) was > 100 µM. For the same compound, the TGI (OVCAR-5 ovarian) was > 100 µM, the TGI (OVCAR-8 ovarian) was > 100 µM and the TGI (PC-3 prostate) was > 100 µM. The TGI (RPMI-8226 leukemia) was > 100 µM, the TGI (RXF 393 renal) was > 100 µM and the TGI (SF-268 CNS) was > 100 µM. The TGI (SF-295 CNS) was > 100 µM, the TGI (SF-539 CNS) was > 100 µM and the TGI (SK-MEL-2 melanoma) was > 100 µM. The TGI (SK-MEL-28 melanoma) was > 100 µM, the TGI (SK-MEL-5 melanoma) was > 100 µM and the TGI (SK-OV-3 ovarian) was > 100 µM. For the same compound, the TGI (SN12C renal) was > 100 µM, the TGI (SNB-19 CNS) was > 100 µM and the TGI (SNB-75 CNS) was > 100 µM. The TGI (SR leukemia) was > 100 µM, the TGI (SW-620 colon) was > 100 µM and the TGI (TK-10 renal) was > 100 µM. The TGI (U251 CNS) was > 100 µM, the TGI (UACC-257 melanoma) was > 100 µM and the TGI (UACC-62 melanoma) was > 100 µM.

In the case of `C1=C(c2ccccc2)O[C@H](COCc2ccccc2)C(OCc2ccccc2)[C@@H]1OCc1ccccc1` (stereo partly specified), the TGI (786-0 renal) is reported as > 10 µM, the TGI (A549 NSCLC) is reported as > 10 µM and the TGI (CAKI-1 renal) is reported as > 10 µM. The TGI (CCRF-CEM leukemia) was > 10 µM, the TGI (COLO 205 colon) was > 10 µM and the TGI (DU-145 prostate) was > 10 µM. For the same compound, the TGI (EKVX NSCLC) was > 10 µM, the TGI (HCC-2998 colon) was > 10 µM and the TGI (HCT-15 colon) was > 10 µM. The TGI (HL-60(TB) leukemia) was > 10 µM, the TGI (HOP-62 NSCLC) was > 10 µM and the TGI (HT29 colon) was > 10 µM. The TGI (IGROV1 ovarian) was > 10 µM, the TGI (K-562 leukemia) was > 10 µM and the TGI (KM12 colon) was > 10 µM. For the same compound, the TGI (M14 melanoma) was > 10 µM, the TGI (MALME-3M melanoma) was > 10 µM and the TGI (MCF7 breast) was > 10 µM. The TGI (MDA-MB-231 breast) was > 10 µM, the TGI (MDA-N) was > 10 µM and the TGI (MOLT-4 leukemia) was > 10 µM. For the same compound, the TGI (NCI-H23 lung) was > 10 µM, the TGI (OVCAR-8 ovarian) was > 10 µM and the TGI (PC-3 prostate) was > 10 µM. For the same compound, the TGI (RPMI-8226 leukemia) was > 10 µM, the TGI (RXF 393 renal) was > 10 µM and the TGI (SF-268 CNS) was > 10 µM. For the same compound, the TGI (SF-295 CNS) was > 10 µM, the TGI (SK-MEL-28 melanoma) was > 10 µM and the TGI (SK-MEL-5 melanoma) was > 10 µM. The TGI (SK-OV-3 ovarian) was > 10 µM, the TGI (SN12C renal) was > 10 µM and the TGI (SNB-75 CNS) was > 10 µM. The TGI (SR leukemia) was > 10 µM, the TGI (SW-620 colon) was > 10 µM and the TGI (T-47D breast) was > 10 µM. For the same compound, the TGI (TK-10 renal) was > 10 µM, the TGI (UACC-257 melanoma) was > 10 µM and the TGI (UACC-62 melanoma) was > 10 µM.
